{
  "source": "patent US5622933A",
  "about": "“Multiple branch peptide constructions for use against HIV” (priority 1993, dated 1997)",
  "key": {"HIV [1]": {"test_system": "HIV", "experiment": "Inhibition of syncytia formation induced by HIV (summary statements)", "type": "cell-based", "method": "CEM or C8166 cells were chronically infected with HIV-1 Lai or HIV-2 Rod, or HIV-1MN, respectively. Infected cells (1×10^4) were incubated for 2 hours with various concentrations of MBPCs in 96-well plates. Uninfected Molt-4 cells (4×10^4) were then added in […]. Syncytia were counted after 18 hours at 37° C."}, "HIV [2]": {"test_system": "HIV", "experiment": "Infection of HT-29 human colon cells through the GalCer receptor", "type": "cell-based", "method": "The activity of MBPCs was evaluated on this alternative infection route as follows: HT-29 cells (5×10^5 cells) were incubated with MBPCs (5×10^-6 M) for 45 minutes and subsequently exposed to 100 TCID50 of HIV-1 (LAI), HIV-1 (NDK) or HIV-2 (ROD) for 1 hour at 37° C. The residual inoculum was inactivated by three successive trypsinations and infection was assessed by: i) direct measurement of HIV-1 p24^gag (for HIV-1 isolates) and RT activity (for HIV-1 and HIV-2 isolates) in the culture supernatants; ii) co-cultivation with human PBLs. The cells were treated with the MBPCs as follows: 1- none; 2- [GPGRAF]8 -MLC; 3- [GPGRAF]8 -MLCD; 4- [GPG(R)DAF]8 -MLC; 5- [GPGRAF]16 -MLC; 6- [[…]]4 -MLC; and 7- [[…]]4 -MLC, with all amino acids in L form unless noted otherwise. The results shown in FIG. 5A, which correspond to infection with HIV-1 (NDK), are representative of three separate experiments and the MBPC used is indicated by the number on the x-axis. The concentration of p24^gag (pg/ml) was measured during the co-culture experiment with PBLs (+++, >10 ng/ml 10 days post-infection; ++, >1 ng/ml 13 days post-infection; +, >1 ng/ml 16 days post-infection; -, no detectable p24^gag 1 month post-infection). Similar results were obtained with HIV-1 (LAI) and HIV-2 (ROD)."}, "GalCer receptor": {"test_system": "GalCer receptor", "experiment": "Binding of gp120 to GalCer (HPTLC binding assay)", "method": "In another experiment with the same MBPCs, the effect of MBPCs on the binding of gp120 to GalCer was analyzed using a high performance thin layer chromatography (HPTLC) binding assay. MBPCs (10^-4 M) were preincubated with GalCer for 1 hour at room temperature. After thorough washing, the HPTLC plates were incubated with HIV-1 recombinant gp120 (2.5 ug/ml) followed by rabbit anti-gp120 and ^125 I-goat anti-rabbit IgG. The plates were washed in PBS and exposed to Amersham Hyperfilm MP for 8 hours. As shown in FIG. 5B treatment of HT-29 cells with active MBPCs protected the cells from infection by HIV-1 (NDK isolate). This antiviral effect was correlated with its ability to block the binding of gp120 to GalCer."}},
  "data": [
    {"substance": "(GPGRAF)16 -(K)8 -(K)4 -(K)2 -K-βA-OH [MBPC.12]", "values": [
      {"measurement": "MBPC concentration with which inhibiting effect on syncytia formation was observed in vitro", "setting": "HIV [1]", "value": "around 10^-6 M"},
      {"measurement": "inhibiting effect on syncytia formation, in words", "setting": "HIV [1]", "value": "results similar to those of MBPC.3"},
      {"measurement": "block of the infectivity of HIV on human colon cells", "setting": "HIV [2]", "value": "completely block"},
      {"measurement": "binding to / activity on the Galactosyl Ceramide receptor", "setting": "GalCer receptor", "value": "bind to the second receptor"}
    ]}
  ]
}
